According to PubChem BioAssay AID248 (DTP/NCI, 2004):
“And” between values parts separate entries of the source, which are not always exact repeats. Equal entries are not always repeated. Toxic doses and inconclusive results are not listed. Cut-off read from the data, not from the text of the source: active = T/C of 150% or more; inactive = T/C below 125%.

System: L1210 leukemia ip in BDF1 mice, survival T/C
Assay: NCI In Vivo Anticancer Drug Screen. Data for tumor model L1210 Leukemia (intraperitoneal) in B6D2F1 (BDF1) mice
Conditions: endpoint: mean survival time, higher = longer survival
Procedure, shortened: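 In this screen, tumor-bearing mice given compound are compared to those given vehicle, and their survival values are reported as a treated-to-control quotient.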

[1] = dose: 100.0 mg/kg/injection, schedule: Q01DX009 (ip), vehicle: Klucel (hydroxypropylcellulose) (HPC)
[2] = dose: 100.0 mg/kg/injection, schedule: Q01DX009 (ip), vehicle: saline with Tween-80
[3] = dose: 200.0 mg/kg/injection, schedule: Q01DX009 (ip), vehicle: Klucel (hydroxypropylcellulose) (HPC)
[4] = dose: 100.0 mg/kg/injection, schedule: Q04DX003 (ip), vehicle: Klucel (hydroxypropylcellulose) (HPC)
[5] = dose: 200.0 mg/kg/injection, schedule: Q04DX003 (ip), vehicle: Klucel (hydroxypropylcellulose) (HPC)
[6] = dose: 400.0 mg/kg/injection, schedule: Q04DX003 (ip), vehicle: Klucel (hydroxypropylcellulose) (HPC)

Measured: T/C

Cc1[nH]c(=O)[nH]c(=O)c1N(CCF)CCCl
inactive: dose: 5.0 mg/kg/injection, schedule: Q01DX009 (ip), vehicle: Klucel (hydroxypropylcellulose) (HPC) 104 % of control and 107 % of control | dose: 5.0 mg/kg/injection, schedule: Q01DX009 (ip), vehicle: saline 106 % of control | dose: 9.0 mg/kg/injection, schedule: Q01DX009 (ip), vehicle: Klucel (hydroxypropylcellulose) (HPC) 108 % of control | dose: 10.0 mg/kg/injection, schedule: Q01DX009 (ip), vehicle: Klucel (hydroxypropylcellulose) (HPC) 112 % of control | dose: 10.0 mg/kg/injection, schedule: Q01DX009 (ip), vehicle: saline 112 % of control | dose: 14.0 mg/kg/injection, schedule: Q01DX009 (ip), vehicle: Klucel (hydroxypropylcellulose) (HPC) 120 % of control | dose: 20.0 mg/kg/injection, schedule: Q01DX009 (ip), vehicle: Klucel (hydroxypropylcellulose) (HPC) 110 % of control | dose: 20.0 mg/kg/injection, schedule: Q01DX009 (ip), vehicle: saline 124 % of control | dose: 23.0 mg/kg/injection, schedule: Q01DX009 (ip), vehicle: Klucel (hydroxypropylcellulose) (HPC) 123 % of control | dose: 23.0 mg/kg/injection, schedule: Q04DX003 (ip), vehicle: Klucel (hydroxypropylcellulose) (HPC) 108 % of control | dose: 39.0 mg/kg/injection, schedule: Q01DX009 (ip), vehicle: Klucel (hydroxypropylcellulose) (HPC) 94 % of control | dose: 39.0 mg/kg/injection, schedule: Q04DX003 (ip), vehicle: Klucel (hydroxypropylcellulose) (HPC) 116 % of control | dose: 65.0 mg/kg/injection, schedule: Q01DX001 (ip), vehicle: Klucel (hydroxypropylcellulose) (HPC) 104 % of control | dose: 108.0 mg/kg/injection, schedule: Q01DX001 (ip), vehicle: Klucel (hydroxypropylcellulose) (HPC) 110 % of control | dose: 108.0 mg/kg/injection, schedule: Q04DX003 (ip), vehicle: Klucel (hydroxypropylcellulose) (HPC) 96 % of control | dose: 180.0 mg/kg/injection, schedule: Q01DX001 (ip), vehicle: Klucel (hydroxypropylcellulose) (HPC) 120 % of control | dose: 180.0 mg/kg/injection, schedule: Q04DX003 (ip), vehicle: Klucel (hydroxypropylcellulose) (HPC) 96 % of control

O=[N+]([O-])c1cc(S(=O)(=O)F)ccc1F
inactive: dose: 0.07 mg/kg/injection, schedule: Q01DX009 (ip), vehicle: carboxymethylcellulose (CMC) 97 % of control | dose: 0.15 mg/kg/injection, schedule: Q01DX009 (ip), vehicle: carboxymethylcellulose (CMC) 100 % of control | dose: 0.31 mg/kg/injection, schedule: Q01DX009 (ip), vehicle: carboxymethylcellulose (CMC) 100 % of control | dose: 0.31 mg/kg/injection, schedule: Q04DX003 (ip), vehicle: carboxymethylcellulose (CMC) 92 % of control | dose: 0.46 mg/kg/injection, schedule: Q01DX009 (ip), vehicle: carboxymethylcellulose (CMC) 103 % of control | dose: 0.62 mg/kg/injection, schedule: Q04DX003 (ip), vehicle: carboxymethylcellulose (CMC) 92 % of control | dose: 0.7 mg/kg/injection, schedule: Q01DX009 (ip), vehicle: carboxymethylcellulose (CMC) 96 % of control | dose: 1.05 mg/kg/injection, schedule: Q01DX009 (ip), vehicle: carboxymethylcellulose (CMC) 92 % of control | dose: 1.5 mg/kg/injection, schedule: Q01DX009 (ip), vehicle: other 94 % of control | dose: 2.3 mg/kg/injection, schedule: Q01DX009 (ip), vehicle: other 89 % of control | dose: 3.4 mg/kg/injection, schedule: Q01DX009 (ip), vehicle: other 89 % of control | dose: 5.0 mg/kg/injection, schedule: Q01DX009 (ip), vehicle: other 87 % of control | dose: 10.0 mg/kg/injection, schedule: Q01DX001 (ip), vehicle: carboxymethylcellulose (CMC) 90 % of control

O=[N+]([O-])c1ccc(Oc2ccccc2[N+](=O)[O-])cc1
inactive: dose: 222.0 mg/kg/injection, schedule: Q01DX Z (ip), vehicle: methylcellulose (MC) 95 % of control | dose: 333.0 mg/kg/injection, schedule: Q01DX Z (ip), vehicle: methylcellulose (MC) 95 % of control | dose: 500.0 mg/kg/injection, schedule: Q01DX Z (ip), vehicle: methylcellulose (MC) 86 % of control

C#CCN(CC#C)CC#C
inactive: dose: 25.0 mg/kg/injection, schedule: Q04DX003 (ip), vehicle: saline 103 % of control | dose: 50.0 mg/kg/injection, schedule: Q04DX003 (ip), vehicle: saline 94 % of control

CC(C)(C)OC(=O)NC(CSCc1ccccc1)C(=O)O (stereo not given)
inactive: dose: 50.0 mg/kg/injection, schedule: Q01DX009 (ip), vehicle: Klucel (hydroxypropylcellulose) (HPC) 98 % of control | [1] 92 % of control | [2] 91 % of control | [3] 98 % of control | dose: 200.0 mg/kg/injection, schedule: Q01DX009 (ip), vehicle: saline with Tween-80 89 % of control

N#CC1CN2c3ccc4ccccc4c3CCC2C1=O (stereo not given)
inactive: dose: 50.0 mg/kg/injection, schedule: Q01DX001 (ip), vehicle: saline 106 % of control | dose: 100.0 mg/kg/injection, schedule: Q01DX001 (ip), vehicle: saline 104 % of control | dose: 200.0 mg/kg/injection, schedule: Q01DX001 (ip), vehicle: saline 104 % of control

[Cu+2].[Cu+2].[O-]CCCN=Cc1ccccc1[O-].[O-]CCCN=Cc1ccccc1[O-]
inactive: dose: 75.0 mg/kg/injection, schedule: Q01DX001 (ip), vehicle: other 97 % of control | dose: 150.0 mg/kg/injection, schedule: Q01DX001 (ip), vehicle: other 111 % of control | dose: 300.0 mg/kg/injection, schedule: Q01DX001 (ip), vehicle: other 102 % of control

O=[N+]([O-])c1ccc2nc3c(nc2c1)-c1cccc2cccc-3c12
inactive: dose: 25.0 mg/kg/injection, schedule: Q01DX009 (ip), vehicle: saline with Tween-80 89 % of control | dose: 50.0 mg/kg/injection, schedule: Q01DX009 (ip), vehicle: saline with Tween-80 91 % of control | [2] 94 % of control | dose: 100.0 mg/kg/injection, schedule: Q04DX003 (ip), vehicle: saline with Tween-80 97 % of control | dose: 200.0 mg/kg/injection, schedule: Q04DX003 (ip), vehicle: saline with Tween-80 97 % of control | dose: 400.0 mg/kg/injection, schedule: Q04DX003 (ip), vehicle: saline with Tween-80 103 % of control

Cn1c(Cl)c(C=O)c2ccccc21
inactive: dose: 50.0 mg/kg/injection, schedule: Q04DX002 (ip), vehicle: Klucel (hydroxypropylcellulose) (HPC) 90 % of control | dose: 100.0 mg/kg/injection, schedule: Q04DX002 (ip), vehicle: Klucel (hydroxypropylcellulose) (HPC) 93 % of control | dose: 200.0 mg/kg/injection, schedule: Q04DX002 (ip), vehicle: Klucel (hydroxypropylcellulose) (HPC) 97 % of control

Cc1cc(C)n(/N=C/c2c[nH]c3ccccc23)c(=O)c1C#N
inactive: dose: 100.0 mg/kg/injection, schedule: Q01DX001 (ip), vehicle: Klucel (hydroxypropylcellulose) (HPC) 97 % of control | [4] 97 % of control | dose: 200.0 mg/kg/injection, schedule: Q01DX001 (ip), vehicle: Klucel (hydroxypropylcellulose) (HPC) 97 % of control | [5] 94 % of control | dose: 400.0 mg/kg/injection, schedule: Q01DX001 (ip), vehicle: Klucel (hydroxypropylcellulose) (HPC) 96 % of control | [6] 97 % of control

COC(=O)c1ccc(C(=O)OC)c(=O)[nH]1
inactive: [1] 109 % of control | [4] 103 % of control | [3] 101 % of control | [5] 102 % of control | dose: 400.0 mg/kg/injection, schedule: Q01DX009 (ip), vehicle: Klucel (hydroxypropylcellulose) (HPC) 102 % of control | [6] 97 % of control

ICC1OC(c2ccccc2)OC2C(CI)OC(c3ccccc3)OC12 (stereo not given)
inactive: dose: 75.0 mg/kg/injection, schedule: Q01DX001 (ip), vehicle: carboxymethylcellulose (CMC) 95 % of control | dose: 150.0 mg/kg/injection, schedule: Q01DX001 (ip), vehicle: carboxymethylcellulose (CMC) 93 % of control | dose: 300.0 mg/kg/injection, schedule: Q01DX001 (ip), vehicle: carboxymethylcellulose (CMC) 88 % of control
